Patent publication US20070275982A1, “METHOD” (ASTRAZENECA AB, priority 2006, published 2007)
Read-outs that look alike come from different tables or passages of the source.

Tested on: M. tuberculosis
Assay: MIC of drugs alone and in combination (synergy test)
Assay type: cell-based, Mycobacterium tuberculosis
Conditions: for change of MIC when tested together: combination Ethambutol + Isoniazid (negative control, FIG. 2); for MIC: Mycobacterium tuberculosis, drug tested alone, read-out: individual MIC
Method: A sulfonylurea ALS inhibitor and a triazolopyrimidine ALS inhibitor were tested alone and in combination with Rifampicin. The positive controls used were Isoniazid and Streptomycin where one finds a synergistic action. The individual MICs of Isoniazid (INH) and Streptomycin (Strep) are 0.03 and 1.0 μg/ml respectively. When used in combination, these values drop to 0.0075 and 0.12 μg/ml respectively (cf. FIG. 1). This is 4 fold and 8 fold less.
The negative control used was a combination of Ethambutol (Etham) and Isoniazid (Inh) where there is no synergistic activity. […] In. Clinical Microbiology Procedures Handbook; Vol. 1-2 by Isenberg, Henry. D. Ed Washington D.C.; American Society for Microbiology/1992; Pages 5.18.1 to 5.18.28).

[1] = combination Isoniazid + Streptomycin
[2] = combination Isoniazid + Streptomycin (positive control, FIG. 1)

SMILES: CC[C@@H](CO)NCCN[C@@H](CC)CO [Ethambutol]
- change of MIC when tested together: do not drop significantly

SMILES: NNC(=O)c1ccncc1 [Isoniazid]
- MIC: 0.03 µg/mL
- change of MIC when tested together: do not drop significantly
- fold drop of MIC in combination vs individual MIC [1]: 4 fold
- MIC when used in combination [2]: 0.0075 µg/mL

SMILES: CO[C@H]1/C=C/O[C@@]2(C)Oc3c(C)c(O)c4c(O)c(c(/C=N/N5CCN(C)CC5)c(O)c4c3C2=O)NC(=O)/C(C)=C\C=C\[C@H](C)[C@H](O)[C@@H](C)[C@@H](O)[C@@H](C)[C@H](OC(C)=O)[C@@H]1C [Rifampicin]
- MIC (Rifampicin/TP experiment (FIG. 4)): 0.015 µg/mL
- MIC: 0.03 µg/mL
- fold drop of MIC in combination vs individual MIC (combination Rifampicin + SU): 8 fold
- fold drop of MIC in combination vs individual MIC (combination Rifampicin + TP): 4 fold
- MIC when used in combination (combination Rifampicin + sulphonylurea compound (SU), FIG. 3): 0.0038 µg/mL
- MIC when used in combination (combination Rifampicin + triazolopyrimidine compound (TP), FIG. 4): 0.0038 µg/mL

SMILES: [H]/N=C(/N)N[C@H]1[C@H](O)[C@@H](O)[C@H](O[C@@H]2O[C@@H](C)[C@](O)(C=O)[C@H]2O[C@@H]2O[C@@H](CO)[C@H](O)[C@@H](O)[C@@H]2NC)[C@@H](N/C(N)=N\[H])[C@@H]1O [Streptomycin]
- MIC: 1 µg/mL
- fold drop of MIC in combination vs individual MIC [1]: 8 fold
- MIC when used in combination [2]: 0.12 µg/mL
